Assay results as given in patent US20250195521A1 (Revolution Medicines, Inc., priority 2020, published 2025).
Like-named read-outs stand apart in the source and are kept apart here.

Assays:
AsPC-1 (K-Ras G12D) [1] = test: Potency assay: pERK; type: cell-based, human; conditions: Homo sapiens
How it was run: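 pERK decrease measured after 4 h compound treatment at 37 °C (10 three-fold dilutions, duplicate wells), by either fixed-cell In-Cell Western with DRAQ5 counterstain or AlphaLISA on lysates. Signal fitted against log concentration with a four-parameter model to give IC50.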

KRAS G12D = KRAS G12D (Homo sapiens (Human), UniProt P01116+P62937, G12D); test: Ras-Raf disruption/FRET/MOA assay, KRAS G12D; type: biochemical
KRAS G12D, sequence (P01116 other isoform, or with tags, fused parts or gaps G12D): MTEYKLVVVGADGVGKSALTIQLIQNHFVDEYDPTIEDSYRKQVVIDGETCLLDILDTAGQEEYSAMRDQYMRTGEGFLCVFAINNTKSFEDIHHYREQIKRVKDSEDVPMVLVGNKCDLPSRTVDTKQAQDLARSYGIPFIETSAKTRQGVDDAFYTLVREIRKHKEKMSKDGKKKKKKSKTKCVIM
KRAS G12D, sequence (P62937 whole entry, the tested form may be a part): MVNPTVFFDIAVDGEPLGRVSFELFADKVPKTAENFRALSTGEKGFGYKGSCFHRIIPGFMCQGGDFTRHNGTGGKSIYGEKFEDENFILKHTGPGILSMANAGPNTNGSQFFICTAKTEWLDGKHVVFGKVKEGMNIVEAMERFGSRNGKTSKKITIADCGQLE
Description: (§1) Disruption of B-Raf Ras-Binding Domain (BRAF^RBD) Interaction with K-Ras by Compounds of the Invention (Also Called a FRET Assay or an MOA Assay)
(§2) Note—The following protocol describes a procedure for monitoring disruption of K-Ras G12C (GMP-PNP) binding to BRAF^RBD by a compound of the invention. This protocol may also be executed substituting other Ras proteins or nucleotides, such as K-Ras G12D and K-Ras G13D.
(§3) The purpose of this biochemical assay was to measure the ability of test compounds to facilitate ternary complex formation between a nucleotide-loaded K-Ras isoform and Cyclophilin A; the resulting ternary complex disrupts binding to a BRAF^RBD construct, inhibiting K-Ras signaling through a RAF effector. Data is reported as IC50 values.
(§4) In assay buffer containing 25 mM HEPES pH 7.3, 0.002% Tween20, 0.1% BSA, 100 mM NaCl and 5 mM MgCl2, tagless Cyclophilin A, His6-K-Ras-GMPPNP, and GST-BRAF^RBD were combined in a 384-well assay plate at final concentrations of 25 μM, 12.5 nM, and 50 nM, respectively. Compound was present in plate wells as a 10-point 3-fold dilution series starting at a final concentration of 30 μM. After incubation at 25° C. for 3 hours, a mixture of anti-His Eu—W1024 and anti-GST allophycocyanin was then added to assay sample wells at final concentrations of 10 nM and 50 nM, respectively, and the reaction incubated for an additional 1.5 hours. […] Compounds that facilitate disruption of a K-Ras: RAF complex were identified as those eliciting a decrease in the TR-FRET ratio relative to DMSO control wells.

KRAS G12V = KRAS G12V (Homo sapiens (Human), UniProt P01116+P62937, G12V); test: Ras-Raf disruption/FRET/MOA assay, KRAS G12V; type: biochemical
KRAS G12V, sequence (P01116 other isoform, or with tags, fused parts or gaps G12V): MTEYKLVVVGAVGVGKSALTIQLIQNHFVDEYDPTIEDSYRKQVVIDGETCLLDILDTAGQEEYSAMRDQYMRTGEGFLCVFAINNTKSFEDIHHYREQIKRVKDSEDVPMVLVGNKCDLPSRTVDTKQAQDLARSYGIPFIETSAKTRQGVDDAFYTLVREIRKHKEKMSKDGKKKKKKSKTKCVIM
KRAS G12V, sequence (P62937 whole entry): as the sequence (P62937 whole entry, the tested form may be a part) above
How it was run: (§5)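 His6-Ras-GMPPNP 12.5 nM + GST-BRAF^RBD 50 nM + CypA 25 μM; HEPES pH 7.3, 5 mM MgCl2, 0.1% BSA, 0.002% Tween20. Cpd 10-pt 3-fold from 30 μM final, 3 h 25° C. Eu/APC antibody detection 1.5 h; TR-FRET ratio drop vs DMSO → IC50.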

KRAS G13D = KRAS G13D (Homo sapiens (Human), UniProt P01116+P62937, G13D); test: Ras-Raf disruption/FRET/MOA assay, KRAS G13D; type: biochemical
KRAS G13D, sequence (P01116 other isoform, or with tags, fused parts or gaps G13D): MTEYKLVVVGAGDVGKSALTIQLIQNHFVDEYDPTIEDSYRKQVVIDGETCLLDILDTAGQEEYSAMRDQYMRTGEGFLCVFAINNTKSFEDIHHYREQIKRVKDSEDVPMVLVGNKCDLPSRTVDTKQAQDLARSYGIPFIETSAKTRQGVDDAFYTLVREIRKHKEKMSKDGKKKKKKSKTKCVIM
KRAS G13D, sequence (P62937 whole entry): as the sequence (P62937 whole entry, the tested form may be a part) above
Description: as §1, §2, §3, §4

NRAS G12C = NRAS G12C (Homo sapiens (Human), UniProt P01111+P62937, G12C); test: Ras-Raf disruption/FRET/MOA assay, NRAS G12C; type: biochemical
NRAS G12C, sequence (P01111 whole entry G12C): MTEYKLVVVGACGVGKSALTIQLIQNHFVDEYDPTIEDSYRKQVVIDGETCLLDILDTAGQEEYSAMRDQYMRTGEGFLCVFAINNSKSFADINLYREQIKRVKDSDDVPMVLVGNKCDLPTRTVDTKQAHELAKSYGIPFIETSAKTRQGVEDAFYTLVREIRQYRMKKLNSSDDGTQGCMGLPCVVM
NRAS G12C, sequence (P62937 whole entry): as the sequence (P62937 whole entry, the tested form may be a part) above
Description: as §1, §2, §3, §4

KRAS WT = KRAS WT (Homo sapiens (Human), UniProt P01116+P62937); test: Ras-Raf disruption/FRET/MOA assay, KRAS WT; type: biochemical
KRAS WT, sequence (P01116 other isoform, or with tags, fused parts or gaps): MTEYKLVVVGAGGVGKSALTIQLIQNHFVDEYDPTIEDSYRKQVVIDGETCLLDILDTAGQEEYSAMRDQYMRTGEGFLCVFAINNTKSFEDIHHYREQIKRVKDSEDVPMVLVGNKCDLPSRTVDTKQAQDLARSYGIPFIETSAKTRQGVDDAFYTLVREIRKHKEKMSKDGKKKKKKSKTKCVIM
KRAS WT, sequence (P62937 whole entry): as the sequence (P62937 whole entry, the tested form may be a part) above
How it was run: as §5

KRAS G12C = KRAS G12C (Homo sapiens (Human), UniProt P01116+P62937, G12C); test: Ras-Raf disruption/FRET/MOA assay, KRAS G12C; type: biochemical
KRAS G12C, sequence (P01116-2 other isoform, or with tags, fused parts or gaps G12C): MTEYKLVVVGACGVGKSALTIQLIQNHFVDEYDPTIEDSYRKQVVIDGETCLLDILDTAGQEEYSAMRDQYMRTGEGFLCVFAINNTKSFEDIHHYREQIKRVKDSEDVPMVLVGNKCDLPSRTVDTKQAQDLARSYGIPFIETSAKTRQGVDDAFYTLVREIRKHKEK
KRAS G12C, sequence (P62937 whole entry): as the sequence (P62937 whole entry, the tested form may be a part) above
Description: as §1, §2, §3, §4

KRAS G12S = KRAS G12S (Homo sapiens (Human), UniProt P01116+P62937, G12S); test: Ras-Raf disruption/FRET/MOA assay, KRAS G12S; type: biochemical
KRAS G12S, sequence (P01116 other isoform, or with tags, fused parts or gaps G12S): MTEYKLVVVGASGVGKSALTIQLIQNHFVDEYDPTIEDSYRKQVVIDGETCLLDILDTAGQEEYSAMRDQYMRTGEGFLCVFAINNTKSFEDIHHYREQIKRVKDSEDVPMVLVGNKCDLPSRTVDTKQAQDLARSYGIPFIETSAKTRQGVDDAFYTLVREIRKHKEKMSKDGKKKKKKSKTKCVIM
KRAS G12S, sequence (P62937 whole entry): as the sequence (P62937 whole entry, the tested form may be a part) above
Description: as §1, §2, §3, §4

NCI-H358 (K-Ras G12C) = test: CellTiter-Glo cell viability assay, H358; type: cell-based, human; conditions: Homo sapiens, NCI-H358, 120 h
How it was run: (§6)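 Viability of K-Ras mutant lines is measured by ATP luminescence after five days of compound treatment. Percent of DMSO control is calculated and dose-response data are fitted with a four-parameter logistic equation.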

AsPC-1 (K-Ras G12D) [2] = test: CellTiter-Glo cell viability assay, AsPC-1; type: cell-based, human; conditions: Homo sapiens, ASPC1, 120 h, read-out: AsPC-1 Cell Viability IC50
How it was run: as §6

KRAS G13C = KRAS G13C (Homo sapiens (Human), UniProt P01116+P62937, G13C); test: Ras-Raf disruption/FRET/MOA assay, KRAS G13C; type: biochemical
KRAS G13C, sequence (P01116 other isoform, or with tags, fused parts or gaps G13C): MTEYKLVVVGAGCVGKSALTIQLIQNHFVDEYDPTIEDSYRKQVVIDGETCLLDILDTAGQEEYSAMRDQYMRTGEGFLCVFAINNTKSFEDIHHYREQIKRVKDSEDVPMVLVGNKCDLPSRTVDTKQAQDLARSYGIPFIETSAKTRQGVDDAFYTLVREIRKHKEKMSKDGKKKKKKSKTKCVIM
KRAS G13C, sequence (P62937 whole entry): as the sequence (P62937 whole entry, the tested form may be a part) above
Description: as §1, §2, §3, §4

[3] = read-out: H358 Cell Viability IC50, K-Ras G12C, 5-day treatment
[4] = read-out: NRAS G12C FRET data IC50
[5] = read-out: KRAS G12C FRET data IC50

| SMILES | EC50 (AsPC-1 (K-Ras G12D) [1]; ASPC1, read-out: pERK EC50) [nM] | IC50 (KRAS G12D) [nM] | IC50 (KRAS G12V) [nM] | IC50 (KRAS G13D) [nM] | IC50 (NRAS G12C) [nM] | IC50 (KRAS WT) [nM] | IC50 (KRAS G12C) [nM] | IC50 (KRAS G12S) [nM] | IC50 (NCI-H358 (K-Ras G12C); [3]) [nM] | IC50 (AsPC-1 (K-Ras G12D) [2]) [nM] | IC50 (KRAS G13C) [nM] | also measured |
| --- | --- | --- | --- | --- | --- | --- | --- | --- | --- | --- | --- | --- |
| CCn1c(-c2cnccc2COC)c2c3cc(ccc31)-c1cc(O)cc(c1)C[C@H](NC(=O)[C@H](C(C)C)N(C)C(=O)CN(C)C(=O)[C@@H]1N[C@H]1c1ccccc1)C(=O)N1CCC[C@H](N1)C(=O)OCC(C)(C)C2 [Example 11] | < 5000 | 1000 to 10000 | 10 to 100 | 100 to 1000 | 10 to 100 | 100 to 1000 | 10 to 100 | 10 to 100 | 100 to 1000 | 1000 to 10000 | 10 to 100 | – |
| CCn1c(-c2cnccc2COC)c2c3cc(ccc31)-c1cc(O)cc(c1)C[C@H](NC(=O)[C@H](C(C)C)N(C)C(=O)CN(C)C(=O)[C@H]1N[C@@H]1c1ccccc1)C(=O)N1CCC[C@H](N1)C(=O)OCC(C)(C)C2 [Example 12] | < 5000 | 100 to 1000 | 10 to 100 | 10 to 100 | 10 to 100 | 10 to 100 | 10 to 100 | 10 to 100 | 100 to 1000 | 100 to 1000 | 10 to 100 | – |
| CCn1c(-c2cccnc2COC)c2c3cc(ccc31)-c1cc(O)cc(c1)C[C@H](NC(=O)[C@H](C(C)C)N(C)C(=O)CCNC(=O)NCCCl)C(=O)N1CCC[C@H](N1)C(=O)OCC(C)(C)C2 [Example 25, (2S)-2-(3-(3-(2-chloroethyl)ureido)-N-methylpropanamido)-N-((6^3S,4S)-1^1-ethyl-25-hydroxy-1^2-(2-(methoxymethyl)pyridin-3-yl)-10,10-dimethyl-5,7-dioxo-6^1,6^2,6^3,6^4,6^5,6^6-hexahydro-1^1H-8-oxa-1 (5,3)-indola-6 (1,3)-pyridazina-2 (1,3)-benzenacycloundecaphane-4-yl)-3-methylbutanamide] | – | > 10000 | 1000 to 10000 | 1000 to 10000 | > 10000 | 1000 to 10000 | 1000 to 10000 | > 10000 | > 10000 | – | 1000 to 10000 | – |
| CCn1c(-c2cnccc2COC)c2c3cc(ccc31)-c1cc(O)cc(c1)C[C@H](NC(=O)[C@@H](CCNC1=NCCO1)C(C)C)C(=O)N1CCC[C@H](N1)C(=O)OCC(C)(C)C2 [Example 30] | – | – | – | – | – | – | – | – | – | – | – | IC50 (KRAS G12D; read-out: KRAS G12D FRET IC50): > 10000 nM; IC50 (KRAS G12V; read-out: KRAS G12V FRET IC50): 1000 to 10000 nM; IC50 (KRAS G13D; read-out: KRAS G13D FRET IC50): 1000 to 10000 nM; IC50 (NRAS G12C; [4]): > 10000 nM; IC50 (KRAS WT; read-out: KRAS WT FRET IC50): 1000 to 10000 nM; IC50 (KRAS G12C; [5]): 1000 to 10000 nM; IC50 (KRAS G12S; read-out: KRAS G12S FRET IC50): > 10000 nM; IC50 (NCI-H358 (K-Ras G12C); read-out: H358 Cell Viability IC50): 1000 to 10000 nM; IC50 (KRAS G13C; read-out: KRAS G13C FRET IC50): > 10000 nM |
| CCn1c(-c2cnccc2COC)c2c3cc(ccc31)-c1cc(O)cc(c1)C[C@H](NC(=O)[C@H](C(C)C)N(C)C(=O)CN(C)C(=O)[C@@H]1N[C@H]1c1ccc(OC)cc1)C(=O)N1CCC[C@H](N1)C(=O)OCC(C)(C)C2 [Example 96] | < 5000 | 100 to 1000 | 10 to 100 | 100 to 1000 | 10 to 100 | 10 to 100 | 10 to 100 | 10 to 100 | 1000 to 10000 | 1000 to 10000 | 10 to 100 | – |
| CCn1c(-c2cnccc2COC)c2c3cc(ccc31)-c1cc(O)cc(c1)C[C@H](NC(=O)[C@H](C(C)C)N(C)C(=O)CN(C)C(=O)[C@@H]1N[C@@H]1C1CC1)C(=O)N1CCC[C@H](N1)C(=O)OCC(C)(C)C2 [Example 103] | < 5000 | 10 to 100 | 10 to 100 | 100 to 1000 | 10 to 100 | 10 to 100 | 10 to 100 | 10 to 100 | 100 to 1000 | 100 to 1000 | 10 to 100 | – |
| CCn1c(-c2cccnc2[C@H](C)OC)c2c3cc(ccc31)-c1cc(O)cc(c1)C[C@H](NC(=O)[C@H](C(C)C)N1CC[C@@]3(CCC(C(=O)[C@@H]4N[C@@H]4C4CC4)C3)C1=O)C(=O)N1CCC[C@H](N1)C(=O)OCC(C)(C)C2 (stereo partly drawn) [Example 128] | – | – | – | – | – | – | – | – | – | – | – | EC50 (AsPC-1 (K-Ras G12D) [1]; ASPC1, AsPC-1 KRAS G12D, read-out: pERK EC50): < 5000 nM; IC50 (KRAS G12D; read-out: KRAS G12D FRET IC50): 100 to 1000 nM; IC50 (KRAS G12V; read-out: KRAS G12V FRET IC50): 100 to 1000 nM; IC50 (KRAS G13D; read-out: KRAS G13D FRET IC50): 100 to 1000 nM; IC50 (NRAS G12C; [4]): 10 to 100 nM; IC50 (KRAS WT; read-out: KRAS WT FRET IC50): 100 to 1000 nM; IC50 (KRAS G12C; [5]): 10 to 100 nM; IC50 (KRAS G12S; read-out: KRAS G12S FRET IC50): 100 to 1000 nM; IC50 (AsPC-1 (K-Ras G12D) [2]; K-Ras G12D, 5-day treatment): 1000 to 10000 nM; IC50 (KRAS G13C; read-out: KRAS G13C FRET IC50): 10 to 100 nM |
